# Reference: publication PMC9960487, “A novel Menin-MLL1 inhibitor, DS-1594a, prevents the progression of acute leukemia with rearranged MLL1 or mutated NPM1” (Cancer Cell International, 2023)
# pIC50: −log10 of the molar value.
# Molecular target: T1, hERG channel (Homo sapiens, UniProt Q12809)
# T1 construct: gene KCNH2
# Experiment: inhibition of hERG channel current (data not shown)
# Assay type: cell-based
# T1 sequence (Q12809 whole entry): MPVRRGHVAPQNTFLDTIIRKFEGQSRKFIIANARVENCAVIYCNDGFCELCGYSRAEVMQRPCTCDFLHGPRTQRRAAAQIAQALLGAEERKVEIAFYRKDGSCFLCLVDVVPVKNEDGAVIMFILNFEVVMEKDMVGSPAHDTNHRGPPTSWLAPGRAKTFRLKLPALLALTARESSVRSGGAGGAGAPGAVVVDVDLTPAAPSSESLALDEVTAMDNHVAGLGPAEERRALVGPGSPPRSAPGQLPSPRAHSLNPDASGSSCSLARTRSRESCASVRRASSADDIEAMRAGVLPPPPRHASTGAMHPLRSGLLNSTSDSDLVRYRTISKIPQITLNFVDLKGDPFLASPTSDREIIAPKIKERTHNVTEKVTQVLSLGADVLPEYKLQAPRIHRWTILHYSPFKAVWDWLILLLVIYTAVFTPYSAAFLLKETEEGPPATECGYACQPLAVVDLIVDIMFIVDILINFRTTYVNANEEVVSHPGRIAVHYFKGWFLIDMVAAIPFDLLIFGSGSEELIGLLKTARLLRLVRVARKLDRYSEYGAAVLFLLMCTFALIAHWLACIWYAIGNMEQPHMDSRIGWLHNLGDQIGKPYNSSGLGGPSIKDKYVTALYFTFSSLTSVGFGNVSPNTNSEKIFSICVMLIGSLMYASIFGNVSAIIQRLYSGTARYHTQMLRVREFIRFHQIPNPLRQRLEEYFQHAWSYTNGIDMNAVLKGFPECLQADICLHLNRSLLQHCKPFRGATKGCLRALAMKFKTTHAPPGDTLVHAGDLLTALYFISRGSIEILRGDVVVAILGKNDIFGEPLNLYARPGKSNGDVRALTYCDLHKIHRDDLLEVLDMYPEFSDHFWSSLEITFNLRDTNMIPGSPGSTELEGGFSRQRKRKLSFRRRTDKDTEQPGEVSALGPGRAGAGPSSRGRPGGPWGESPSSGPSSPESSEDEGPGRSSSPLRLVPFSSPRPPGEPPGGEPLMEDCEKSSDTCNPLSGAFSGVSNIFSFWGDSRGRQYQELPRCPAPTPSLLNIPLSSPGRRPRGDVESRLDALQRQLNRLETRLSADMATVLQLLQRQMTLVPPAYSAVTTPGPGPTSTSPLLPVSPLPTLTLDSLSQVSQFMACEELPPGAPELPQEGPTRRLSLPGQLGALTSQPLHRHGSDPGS
smiles,measurement,value
"COc1cc(-c2ccc(CN[C@H]3C[C@@H](O)[C@@H](N(C)c4ncnc5sc(CC(F)(F)F)cc45)C3)cc2)nnc1OC [DS-1594a, (1R, 2S, 4R)-4-({[4-(5,6-dimethoxypyridazin-3-yl)phenyl]methyl}amino)-2-{methyl[6-(2,2,2-trifluoroethyl)thieno[2,3-d]pyrimidin-4-yl]amino}cyclopentan-1-ol]",pIC50,6.52
